According to ChEMBL document CHEMBL5441456, “ASAP - SARS-CoV-2 nsp3 macrodomain dose response” (2024):
Where “and” joins values, the source holds several entries; their conditions need not be identical. Equal entries are not always repeated.

Molecular target: Replicase polyprotein 1ab (Severe acute respiratory syndrome coronavirus 2, UniProt P0DTD1)
Assay: Functional biochemical assay to identify treatments for viral infectious disease that targets SARS-COV-2 nsp3 macrodomain, whereby the mechanism of action displaces an ADP-Ribose modified peptide from the binding site. Utilizing a time-resolved fluorescence method to measure binding by reading the emitted fluorescence intensity in two wavelengths.

Row | Structure (SMILES) | IC50
1 | CC(C)[C@@H](Nc1ncnc2[nH]c(-c3cnn(CCC(N)=O)c3)cc12)c1ccc2c(c1)OCCO2 | 0.274 µM and 0.319 µM
2 | O=C(Nc1ccc(C(=O)N[C@@H]2c3ccccc3C[C@@H]2C(=O)O)cc1)c1ccc2c(c1)OCCO2 | > 99.5 µM
3 | Cc1[nH]c2ncnc(NC(=O)c3ccc(N(C)C)nc3)c2c1C | > 99.5 µM
4 | COc1ccc2c(NC(=O)c3ccc(NC(=O)NC4CC4)cc3)c(C(=O)O)sc2c1 | > 99.5 µM
5 | O=C(O)C[C@@H](NC(=O)c1ncnc2[nH]ccc12)c1ccc(NCC2=NO[C@@H]3COC[C@H]23)cc1 | 7.29 µM and 8.33 µM
6 | Cc1nnn(C)c1-c1cc2c(N[C@@H](c3ccc4c(c3)S(=O)(=O)CCC4)C(C)C)ncnc2[nH]1 | 0.414 µM and 0.419 µM
7 | COc1ccc(CN(c2ncnc3[nH]ccc23)C(C)C)cc1OC | > 99.5 µM
8 | CC(C)[C@H](Nc1ncnc2[nH]c(C(=O)N[C@@H]3CCN(C)C3)cc12)c1ccc2c(c1)S(=O)(=O)CCC2 | 3.16 µM and 2.86 µM and 3.79 µM and 1.62 µM
9 | CCNC(=O)c1cc2c(N[C@H](c3ccc4c(n3)S(=O)(=O)CCC4)C(C)C)ncnc2[nH]1 | 0.119 µM
10 | CC(C)[C@H](Nc1cc(O)ncn1)c1ccc2c(c1)S(=O)(=O)CCC2 | > 99.5 µM
11 | CC(C)[C@@H](Nc1ccc(NC(=O)NC2CC2)cc1)c1ccc2c(c1)OCCO2 | > 99.5 µM
12 | COc1cnn(C)c1-c1cc2c(N[C@@H](c3ccc4c(c3)OCCO4)C(C)C)ncnc2[nH]1 | 50.9 µM and 55.9 µM
13 | CC(C)[C@@H](Nc1ncnc2[nH]c(-c3cnn(C(C)C)c3)cc12)c1ccc2c(c1)OCCO2 | 0.757 µM and 0.962 µM and 0.864 µM
14 | CC(C)[C@@H](Oc1ncnc2[nH]ccc12)c1ccc2c(c1)S(=O)(=O)CCC2 | 6.05 µM
15 | CC(C)[C@@H](Nc1ncnc2[nH]c([C@@]3(O)CCOC3)cc12)c1ccc2c(c1)OCCO2 | 9.98 µM and 23 µM
16 | Cc1cnn(-c2ccc(-c3cc4c(N[C@@H](c5ccc6c(c5)OCCO6)C(C)C)ncnc4[nH]3)cc2)c1 | > 99.5 µM
17 | CC(C)[C@@H](Nc1ncnc2[nH]c(C(=O)N[C@H]3[C@@H]4COC[C@@H]43)cc12)c1ccc2c(c1)OCCO2 | 0.629 µM and 0.543 µM
18 | c1nc(N[C@@H](c2ccc3c(c2)OCCO3)C2CCCC2)c2cc[nH]c2n1 | 2.23 µM and 2.25 µM
19 | CC(C)[C@@H](Nc1ncnc2[nH]c(-c3cc4c(C#N)cccc4[nH]3)cc12)c1ccc2c(c1)OCCO2 | > 99.5 µM
20 | COCc1cc(CNc2ccc([C@@H](CC(=O)O)NC(=O)c3c[nH]c4ncncc34)cc2)on1 | > 99.5 µM
21 | O=C(O)[C@@H]1[C@@H](c2ccccc2)CCN1c1ncnc2[nH]ccc12 | > 99.5 µM
22 | CC(C)[C@@H](Nc1ncnc2[nH]c(C(=O)NC3(CF)COC3)cc12)c1ccc2c(c1)OCCO2 | 1.25 µM and 1.74 µM
23 | CC(C)[C@@H](Nc1ncnc2[nH]ccc12)c1ccc(C(F)(F)F)cc1 | 46.2 µM and 37.2 µM
24 | c1cc(-c2nnc(Sc3ncnc4[nH]ccc34)[nH]2)ccn1 | > 124 µM

Row | Structure (SMILES) | IC50
25 | CC(C)[C@H](Nc1cc(-c2nc[nH]n2)ncn1)c1ccc2c(c1)S(=O)(=O)CCC2 | > 99.5 µM
26 | C=CCn1c(Sc2ncnc3[nH]ccc23)nc2sccc2c1=O | > 99.5 µM
27 | CC(C)[C@@H](Nc1ncnc2[nH]c(C3=CCOC3)cc12)c1ccc2c(c1)S(=O)(=O)CCC2 | 0.082 µM and 0.114 µM and 0.244 µM
28 | CC(C)[C@@H](Nc1ncnc2[nH]c(C(N)=O)cc12)c1ccc2c(c1)OCCO2 | 0.453 µM and 0.466 µM
29 | CC(C)Cc1ccc2c(NC(=O)c3ccc(NC(=O)NC4CC4)cc3)c(C(=O)O)sc2n1 | > 99.5 µM
30 | CCNC(=O)c1cc2c(N[C@@H](c3nc4ccccc4o3)C(C)C)ncnc2[nH]1 | 20.5 µM and 17.6 µM
31 | O=C(O)C[C@@H](NC(=O)c1ccc(NC(=O)NC2CC2)cc1)c1cccc(O)c1 | 9.04 µM and 8.76 µM
32 | CCc1[nH]nnc1NC(=O)c1cc2c(N[C@@H](c3ccc4c(c3)OCCO4)C(C)C)ncnc2[nH]1 | 4.42 µM and 4.28 µM
33 | Cn1ncc2c(NCc3ncccc3O)ncnc21 | > 124 µM
34 | CNC(=N)C[C@@H](NC(=O)c1ncnc2[nH]ccc12)c1ccc(Br)cc1 | > 99.5 µM
35 | O=C(Nc1ccc(C(=O)NCc2c(C(=O)O)[nH]c3ccccc23)cc1)NC1CC1 | 13.6 µM
36 | CC(C)[C@@H](Nc1ncnc2[nH]c(-c3ccn(C(C)C)n3)cc12)c1ccc2c(c1)OCCO2 | 2.27 µM and 2.62 µM
37 | COc1cc(Nc2ccc(C(=O)N[C@@H]3c4cccc(O)c4C[C@H]3C(=O)O)cc2)[nH]n1 | > 99.5 µM
38 | Cc1[nH]c2ncnc(NC(=O)c3ccc(S(C)(=O)=O)nc3)c2c1C | > 99.5 µM
39 | CC(C)[C@H](Nc1ncnc2c1CNCC2)c1ccc2c(c1)S(=O)(=O)CCC2 | > 99.5 µM
40 | CC(C)[C@H](Nc1cc(N2CCOCC2)ncn1)c1ccc2c(c1)S(=O)(=O)CCC2 | > 99.5 µM
41 | O=C(O)C[C@H](NC(=O)c1ccc(NC(=O)NC2CC2)cc1)c1cccnc1 | 50.1 µM and 58.4 µM
42 | CC(C)[C@@H](Nc1ncnc2[nH]c(-c3cnn(CC(=O)N(C)C)c3)cc12)c1ccc2c(c1)S(=O)(=O)CCC2 | 0.039 µM and 0.055 µM and 0.03 µM and 0.026 µM and 0.045 µM and 0.029 µM and 0.033 µM
43 | CC(C)[C@H](Nc1ncncc1-n1cncn1)c1ccc2c(c1)S(=O)(=O)CCC2 | > 99.5 µM
44 | CC(C)[C@@H](Nc1nc(C2CC2)nc2[nH]ccc12)c1ccc2c(c1)OCCO2 | > 99.5 µM
45 | CCNC(=O)c1cc2c(N[C@@H](c3cccc(-c4ccc(OC)nc4)c3)C(C)C)ncnc2[nH]1 | 20.9 µM and 17.7 µM
46 | CC(C)[C@@H](Nc1ncnc2[nH]ccc12)c1nc2ccccc2[nH]1 | 96.6 µM
47 | CCNC(=O)c1cc2c(N[C@@H](c3ccc4c(c3)OCCO4)C(C)C)ncnc2[nH]1 | 0.28 µM and 0.305 µM and 0.287 µM and 0.614 µM
48 | COc1ncnc(N[C@H](c2ccc3c(c2)S(=O)(=O)CCC3)C(C)C)c1F | > 99.5 µM

Row | Structure (SMILES) | IC50
49 | Cc1nc2ccc(C(=O)N(C)CC[C@@H](Nc3ncnc4[nH]ccc34)C(C)C)cc2s1 | > 99.5 µM
50 | CC(C)[C@@H](Nc1ncnc2[nH]c(-c3cccc(NC(N)=O)c3)cc12)c1ccc2c(c1)OCCO2 | 5.14 µM and 5.85 µM
51 | CC(C)[C@@H](Nc1ncnc2[nH]c(-c3cnn(-c4ccc(F)cc4)c3)cc12)c1ccc2c(c1)OCCO2 | 27.4 µM and 26 µM
52 | CC(C)[C@@H](Nc1ncnc2[nH]c(-c3ccnc(C#N)c3)cc12)c1ccc2c(c1)OCCO2 | 2.09 µM and 2.22 µM
53 | O=C(Nc1cccc2c(C(=O)N[C@@H](c3ccccc3)C(F)F)c[nH]c12)NC1CC1 | > 99.5 µM
54 | Cc1nn(C)cc1-c1cc2c(N[C@@H](c3ccc4c(c3)OCCO4)C(C)C)ncnc2[nH]1 | 0.411 µM and 0.493 µM and 0.469 µM
55 | CC(C)(C)[C@H](Nc1ncnc2[nH]c(-c3cnn(CC(N)=O)c3)cc12)c1ccc2c(c1)OCCO2 | 0.122 µM
56 | CC(C)OCCNC(=O)c1cc2c(=O)n3ccccc3nc2n1C | > 124 µM
57 | CC(C)[C@H](Nc1ncnc(N)c1F)c1ccc2c(c1)S(=O)(=O)CCC2 | > 99.5 µM
58 | CC(C)[C@@H](CCN(C)C(=O)c1nn(C)c2ccc(F)cc12)Nc1ncnc2[nH]ccc12 | > 99.5 µM
59 | CNCc1cc(-c2cc3c(N[C@@H](c4ccc5c(c4)S(=O)(=O)NCC5)C(C)C)ncnc3[nH]2)co1 | 65 nM and 70 nM (2×) and 108 nM
60 | CC(C)[C@@H](Nc1ncnc2[nH]cc(C(=O)N(C)C)c12)c1ccc2c(c1)OCCO2 | 1.95 µM and 1.97 µM
61 | COc1ccc(C(=O)N2CCC(c3ccn4ncc(C(=O)N[C@@H]5CCC[C@@H]5C(=O)O)c4c3)CC2)cc1 | 20.2 µM and 24.6 µM
62 | O=C(Nc1ccc(C(=O)Nc2c(C(=O)O)[nH]c3ccccc23)cc1)NC1CC1 | > 99.5 µM
63 | Cc1cc(-c2cc3c(N[C@@H](c4ccc5c(c4)OCCO5)C(C)C)ncnc3[nH]2)co1 | 8.7 µM and 13.6 µM and 17 µM
64 | CNC(=O)c1cc2c(N[C@@H](c3ccc4c(c3)OCCO4)C(C)C)ncnc2[nH]1 | 0.45 µM and 0.366 µM
65 | O=C(c1nnn[nH]1)N1CCC(c2ccn3ncc(C(=O)N4CCCCC4)c3c2)CC1 | 28.3 µM
66 | CCn1ncc(-c2cc3c(N[C@@H](c4ccc5c(c4)OCCO5)C(C)C)ncnc3[nH]2)n1 | 1.07 µM and 1.24 µM
67 | CC(C)[C@@H](CCN(C)C(=O)c1cc2nccnc2cc1F)Nc1ncnc2[nH]ccc12 | > 99.5 µM
68 | O=C(O)C[C@@H](NC(=O)c1cccc2cc[nH]c12)c1ccc(Br)cc1 | > 99.5 µM
69 | O=C(O)C[C@@H](NC(=O)c1ccc(NC(=O)NC2CC2)cc1)C1CCOCC1 | > 99.5 µM
70 | O=C(CCN(Cc1cccc(Cl)c1)C(=O)c1ccc(F)cn1)N1CCNCC1 | > 99.5 µM
71 | Cc1cnn(C)c1NC(=O)c1cc2c(N[C@@H](c3ccc4c(c3)OCCO4)C(C)C)ncnc2[nH]1 | 27.3 µM and > 99.5 µM
72 | CC(C)[C@@H](Nc1ncnc2[nH]cc(Br)c12)c1ccc2c(c1)OCCO2 | 10.1 µM and 11.8 µM

Row | Structure (SMILES) | IC50
73 | CCNC(=O)c1cc2c(N[C@H](c3ccc4c(c3)S(=O)(=O)CCC4)C(C)C)ncnc2[nH]1 | 1.28 µM
74 | O=C(O)C[C@@H](NC(=O)c1ccnc(-n2cccc2)c1)c1ccc(Br)cc1 | > 99.5 µM
75 | COc1ccc(Nc2ncnc3[nH]ccc23)cc1OC | > 99.5 µM
76 | O=C(c1cc(O)ccn1)N1CCC(c2ccn3ncc(C(=O)N4CCCCC4)c3c2)CC1 | > 99.5 µM
77 | O=C(O)[C@@H]1C[C@@H](O)CN1c1ncnc2[nH]ccc12 | > 99.5 µM
78 | Cn1nc(C(=O)O)cc1C(=O)N1CCC(c2ccn3ncc(C(=O)N4CCCCC4)c3c2)CC1 | > 99.5 µM
79 | COc1ccccc1C[C@@H](Nc1ncnc2[nH]ccc12)C(C)C | 97.5 µM
80 | CNC(=O)c1cccc(-c2cc3c(N[C@H](c4ccc5c(c4)S(=O)(=O)CCC5)C(C)C)ncnc3[nH]2)c1 | 0.014 µM and 0.026 µM and 0.01 µM and 0.02 µM and 0.022 µM and 0.027 µM and 0.029 µM
81 | CC(C)[C@@H](Nc1ncnc2[nH]c3cc(F)ccc3c12)c1ccc2c(c1)OCCO2 | 8.54 µM and 10 µM
82 | CC(C)[C@@H](Nc1ncnc2[nH]ccc12)c1ccc2c(c1)S(=O)(=O)CCO2 | 0.181 µM
83 | CC(C)[C@@H](Nc1cc(-c2cc[nH]n2)ncn1)c1ccc2c(c1)OCCO2 | > 99.5 µM
84 | O=C(N[C@@H](C(=O)O)C1Cc2ccccc2C1)c1ncnc2[nH]ccc12 | > 99.5 µM
85 | Cc1ccc([C@@H](Nc2ncnc3[nH]ccc23)C(C)C)cc1S(C)(=O)=O | 7.29 µM and 11.3 µM
86 | c1nc(N2CCC[C@@H]2c2ccc3c(c2)OCCO3)c2cc[nH]c2n1 | > 99.5 µM
87 | CC(C)[C@@H](Nc1ncnc2[nH]c(-c3cnn([C@@H](C)C(N)=O)c3)cc12)c1ccc2c(c1)OCCO2 | 0.422 µM and 0.498 µM and 0.497 µM
88 | c1nc(Nc2ccc3c(c2)OCO3)c2cc[nH]c2n1 | > 99.5 µM
89 | COC(=O)c1c[nH]c(-c2cc(N[C@@H](c3ccc4c(c3)OCCO4)C(C)C)ncn2)c1 | > 99.5 µM
90 | CCNC(=O)c1cc2c(N[C@H](c3ccc4nc(NC(C)=O)sc4c3)C(C)C)ncnc2[nH]1 | 30.1 µM
91 | CCNC(=O)c1cc2c(N[C@@H](c3ccc4c(c3)CCN4C(=O)C3CC3)C(C)C)ncnc2[nH]1 | 24.6 µM
92 | NC(=O)C[C@@H](NC(=O)c1ncnc2[nH]ccc12)C1CCCCC1 | > 99.5 µM
93 | CC(C)[C@@H](Nc1ncnc2[nH]c(C(=O)O)cc12)c1ccc2c(c1)OCCO2 | 11.7 µM and 11.5 µM
94 | Cc1nnc(N[C@@H](c2ccc3c(c2)OCCO3)C(C)C)c2ccccc12 | > 99.5 µM
